Legend:
glutathione reductase = biological target: T1, glutathione reductase (Homo sapiens, UniProt P00390); settings: irreversible inhibitor; cited from earlier work
T1 sequence (P00390 44-522): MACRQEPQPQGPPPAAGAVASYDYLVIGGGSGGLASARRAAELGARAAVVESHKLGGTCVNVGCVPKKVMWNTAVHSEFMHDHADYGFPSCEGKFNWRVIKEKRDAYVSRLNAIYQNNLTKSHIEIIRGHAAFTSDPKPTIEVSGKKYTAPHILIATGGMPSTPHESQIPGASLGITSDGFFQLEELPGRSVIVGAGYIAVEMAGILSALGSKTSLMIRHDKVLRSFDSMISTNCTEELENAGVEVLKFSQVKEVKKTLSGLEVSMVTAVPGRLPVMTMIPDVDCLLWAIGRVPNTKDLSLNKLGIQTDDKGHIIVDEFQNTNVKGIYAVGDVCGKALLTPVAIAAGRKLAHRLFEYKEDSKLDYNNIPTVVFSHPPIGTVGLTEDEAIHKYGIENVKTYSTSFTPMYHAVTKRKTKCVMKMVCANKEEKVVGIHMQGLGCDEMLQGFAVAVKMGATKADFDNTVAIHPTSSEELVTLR

GBM cell lines = settings: cited from earlier work
GSCs and GBM cell lines = settings: lower IC50s for GSCs compared to GBM cell lines; cited from earlier work
GBM cell lines and GSCs = settings: cited from earlier work
[1] = tested on: glioblastoma stem cells (GSCs); assay: Auranofin plus TTFields in glioblastoma stem cells (Example 2); assay type: cell-based; settings: combined with TTFields
Method: In vitro—To assess the effect of this trimodal therapy, GSCs are exposed to AU (auranofin, 0.50 μM), RT (3 Gy), TTFields, TTFields+AU, TTFields+RT, and the combination of all three treatments (AU+RT+TTFields). The GSCs are assessed for the following: (i) a neurosphere formation assay; (ii) ROS Intracellular levels; (iii) MitoTracker™ assessment of mitochondrial membrane potential; and (iv) TrXR1 and GSH activity assays.
In vivo—To further investigate the effect of ROS-inducing trimodal therapy (RT+AU+TTFields) in vivo, subcutaneous injections of GSCs 1123S and 528 stably transduced with luciferase are performed. GCSs are injected (3×10^5 cells 10 μl) to the right flank of mice. Treatment is started when tumors can be visualized by BLI upon injection of D-luciferin substrate. Blood is collected to monitor potential toxicities. The tumor is exposed to snap-freezing and then processed for WB and for tissue formalin fixation for further IHC analysis of p53, MGMT, and TrxR1-associated genes.

[2] = tested on: glioblastoma stem cells (GSCs); settings: cited from earlier work
wild-type human TrxR1 = biological target: T2, wild-type human TrxR1 (Homo sapiens, UniProt Q16881); settings: cited from earlier work
T2 sequence (Q16881 151-649 limits assumed): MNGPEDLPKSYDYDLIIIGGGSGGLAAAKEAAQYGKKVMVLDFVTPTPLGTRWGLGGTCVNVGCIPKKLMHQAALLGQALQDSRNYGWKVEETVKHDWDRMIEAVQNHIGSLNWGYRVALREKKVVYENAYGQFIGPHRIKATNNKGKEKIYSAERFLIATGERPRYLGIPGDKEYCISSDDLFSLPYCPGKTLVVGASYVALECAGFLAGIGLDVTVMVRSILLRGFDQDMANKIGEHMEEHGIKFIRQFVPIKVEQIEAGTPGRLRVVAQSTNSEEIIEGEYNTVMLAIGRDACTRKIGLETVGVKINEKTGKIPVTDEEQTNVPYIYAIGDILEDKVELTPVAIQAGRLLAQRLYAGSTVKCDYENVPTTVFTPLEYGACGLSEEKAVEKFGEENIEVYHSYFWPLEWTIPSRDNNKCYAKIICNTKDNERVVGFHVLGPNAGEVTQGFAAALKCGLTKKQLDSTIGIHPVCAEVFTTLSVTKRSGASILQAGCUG

[3] = biological target: T3, glutathione peroxidase 4 (GPX4) (Homo sapiens, UniProt P36969); settings: selective and covalent inhibitor; cited from earlier work
T3 sequence (P36969 1-197): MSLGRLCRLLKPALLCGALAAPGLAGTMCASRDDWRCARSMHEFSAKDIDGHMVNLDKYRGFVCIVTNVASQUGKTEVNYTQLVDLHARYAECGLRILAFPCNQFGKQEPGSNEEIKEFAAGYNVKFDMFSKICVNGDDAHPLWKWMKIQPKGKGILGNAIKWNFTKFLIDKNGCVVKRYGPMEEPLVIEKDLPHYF

mitochondrial toxicity = settings: cited from earlier work
[4] = biological target: T4, cytosolic thioredoxin reductase 1 (TXNRD1) (Homo sapiens, UniProt Q16881); settings: irreversible inhibitor; cited from earlier work
T4 sequence (Q16881 151-649 limits assumed): T2 sequence (Q16881 151-649 limits assumed)

cancer cells = settings: piperlongumine combined with erastin; cited from earlier work

## N[C@@H](CCC(=O)N[C@@H](CSc1ccc([N+](=O)[O-])cc1[N+](=O)[O-])C(=O)NCC(=O)O)C(=O)O [(2,4-Dinitrophenyl)glutathione, S-(2,4-Dinitrophenyl)glutathione]
Glutathione reductase
  Ki: 30 µM

## CC(=O)OC[C@H]1O[C@@H]([S-])[C@H](OC(C)=O)[C@@H](OC(C)=O)[C@@H]1OC(C)=O.CCP(CC)CC.[Au+] [Auranofin]
GBM cell lines
  clonogenic potential: decreased
GSCs and GBM cell lines
  cell survival: decreased
GBM cell lines and GSCs; GBM cell lines and GSCs, auranofin alone
  intracellular ROS: significantly increases
GBM cell lines and GSCs; GSCs, auranofin with RT
  ROS, combination with radiation therapy: synergistically increases
[1]
  effect of combination of Auranofin and TTFields: synergistic effect
[2]
  neurosphere formation ability: decreased

## O=c1c2ccccc2[se]n1CCn1[se]c2ccccc2c1=O [Ethaselen, 1,2-[bis(1,2-benzisoselenazolone-3 (2H)-ketone)]ethane]
wild-type human TrxR1
  IC50: 0.5 µM

## Cc1onc(C(=O)N2CCN(C(c3ccc(Cl)cc3)c3ccc(Cl)cc3)CC2)c1[N+](=O)[O-] [ML-210]
[3]
  EC50: 0.03 µM

## COc1ccc([N+](=O)[O-])c(S(=O)(=O)c2ccc(Cl)cc2)n1 [TRi-1]
Mitochondrial toxicity
  mitochondrial toxicity: little mitochondrial toxicity for anticancer therapy.
[4]
  IC50: 0.012 µM

## COc1cc(/C=C/C(=O)N2CCC=CC2=O)cc(OC)c1OC [piperlongumine]
Cancer cells
  effect of combination over either treatment alone: synergistic effect
